Test results published in US20110053985A1, “NOVEL PIPERIDINE-4-CARBOXYLIC ACID PHENYL-ALKYL-AMIDE DERIVATIVES AND THEIR USE AS MONOAMINE NEUROTRANSMITTER RE-UPTAKE INHIBITORS” (NEUROSEARCH A/S, priority 2008, published 2011).
pIC50: −log10 of the molar value. Structures can show the parent of a compound that is named as a salt.

Legend:
[1] = target: T1, serotonine (5-HT) reuptake in synaptosomes (Rattus norvegicus, UniProt P31652); test: Inhibition of 5-HT reuptake in synaptosomes; assay type: biochemical; conditions: 3H-5-HT, read-out: 5-HT-uptake IC50
T1 construct: serotonine (5-HT) in synaptosomes as described in WO 97/16451; from tissue; host or cells: synaptosomes (brain tissue)
From the text: (§1) Compounds of the invention may be tested for their ability to inhibit re-uptake of the monoamines dopamine, noradrenaline and serotonin in synaptosomes e.g. such as described in WO 97/30997 (NeuroSearch A/S) or WO 97/16451 (NeuroSearch NS). Based on the balanced activity observed in these tests the compound of the invention is considered useful for the treatment, prevention or alleviation of a disease or a disorder or a condition of a mammal, including a human, which disease, disorder or condition is responsive to inhibition of monoamine neurotransmitter re-uptake in the central nervous system.
(§2) Compounds were tested for their ability to inhibit the reuptake of the monoamine neurotransmitters dopamine (DA) noradrenaline (NA) and serotonine (5-HT) in synaptosomes as described in WO 97/16451 (NeuroSearch A/S).
(§3) The test values are given as IC50 (the concentration (μM) of the test substance which inhibits the specific binding of ^3H-DA, ^3H-NA, or ^3H-5-HT by 50%).

[2] = target: T2, dopamine (DA) reuptake in synaptosomes (Rattus norvegicus, UniProt P23977); test: Inhibition of DA reuptake in synaptosomes; assay type: biochemical; conditions: 3H-DA, read-out: DA-uptake IC50
T2 construct: in synaptosomes as described in WO 97/16451; from tissue; host or cells: synaptosomes (brain tissue)
From the text: as §1, §2, §3

T1 sequence (P31652 whole entry): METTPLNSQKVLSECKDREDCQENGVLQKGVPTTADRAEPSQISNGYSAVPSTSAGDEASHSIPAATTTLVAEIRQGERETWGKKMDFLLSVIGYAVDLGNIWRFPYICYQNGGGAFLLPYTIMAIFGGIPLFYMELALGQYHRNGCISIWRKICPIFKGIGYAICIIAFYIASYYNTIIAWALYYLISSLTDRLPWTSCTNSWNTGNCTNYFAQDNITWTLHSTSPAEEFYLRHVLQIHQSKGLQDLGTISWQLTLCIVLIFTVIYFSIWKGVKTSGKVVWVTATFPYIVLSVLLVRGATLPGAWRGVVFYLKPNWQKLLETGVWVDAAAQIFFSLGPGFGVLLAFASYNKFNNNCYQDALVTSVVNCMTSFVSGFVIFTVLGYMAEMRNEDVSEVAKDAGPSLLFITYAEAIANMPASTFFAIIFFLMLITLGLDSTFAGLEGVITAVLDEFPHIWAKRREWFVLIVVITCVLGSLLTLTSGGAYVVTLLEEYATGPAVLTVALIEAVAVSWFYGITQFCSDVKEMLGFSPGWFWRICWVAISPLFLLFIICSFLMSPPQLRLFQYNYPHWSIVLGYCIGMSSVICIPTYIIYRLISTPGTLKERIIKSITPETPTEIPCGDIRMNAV
T2 sequence (P23977 whole entry): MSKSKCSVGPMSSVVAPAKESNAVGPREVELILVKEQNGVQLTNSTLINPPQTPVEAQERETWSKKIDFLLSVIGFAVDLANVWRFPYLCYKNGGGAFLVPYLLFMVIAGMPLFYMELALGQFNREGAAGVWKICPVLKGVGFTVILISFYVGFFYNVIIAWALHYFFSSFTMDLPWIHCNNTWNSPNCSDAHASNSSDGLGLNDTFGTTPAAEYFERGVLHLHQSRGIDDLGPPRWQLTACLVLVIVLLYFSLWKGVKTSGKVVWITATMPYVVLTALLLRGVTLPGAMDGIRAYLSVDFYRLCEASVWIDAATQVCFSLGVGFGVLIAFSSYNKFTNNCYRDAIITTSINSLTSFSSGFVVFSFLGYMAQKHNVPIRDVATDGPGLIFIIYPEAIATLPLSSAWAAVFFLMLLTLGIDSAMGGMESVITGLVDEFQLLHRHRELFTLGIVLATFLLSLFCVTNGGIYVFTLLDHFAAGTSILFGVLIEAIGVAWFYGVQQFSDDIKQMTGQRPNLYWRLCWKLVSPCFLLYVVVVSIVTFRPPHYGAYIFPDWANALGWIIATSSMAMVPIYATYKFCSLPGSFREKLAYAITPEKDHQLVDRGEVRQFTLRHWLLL

pIC50 [1]	pIC50 [2]	melting point [°C]	SMILES
6.92	8.40	–	CCN(C(=O)C1CCNCC1)c1ccc(Br)c(Br)c1 [Compound C13, Piperidine-4-carboxylic acid (3,4-dibromo-phenyl)-ethyl-amide hydrochloric acid salt]
6.43	7.68	159.3 to 160.7	CCN(C(=O)C1CCNCC1)c1ccc(Cl)c(Cl)c1.O=C(O)C(F)(F)F [Compound C1, Piperidine-4-carboxylic acid (3,4-dichloro-phenyl)-ethyl-amide trifluoroacetic acid salt]
6.85	8.11	–	CCN(C(=O)C1CCNCC1)c1ccc(Cl)c(Br)c1 [Compound C7, Piperidine-4-carboxylic acid (3-bromo-4-chloro-phenyl)-ethyl-amide hydrochloric acid salt]
